This passage reports IC50 results from ChEMBL document CHEMBL1137957, “Probing pockets S2-S4' of the gamma-secretase active site with (hydroxyethyl)urea peptidomimetics” (Bioorg Med Chem Lett, 2004).

Usually IC50 stands for the concentration needed to halve the response being measured.

In this assay the target is Gamma-secretase. The assay is described as follows: Inhibition of amyloid-beta production in Chinese hamster ovary (CHO) cells expressing human amyloid precursor protein (APP). The format is functional, cell-based.

The molecule `COC(=O)[C@H](Cc1ccccc1)NC(=O)[C@H](CC(C)C)NC(=O)N(C)C[C@@H](O)[C@H](Cc1ccccc1)NC(=O)OC(C)(C)C` returned a 50% inhibitory concentration (IC50) of 3100 nM.

As for `COC(=O)[C@H](CC(C)C)NC(=O)[C@@H](NC(=O)[C@H](CC(C)C)NC(=O)N(Cc1ccccc1)C[C@@H](O)[C@H](Cc1ccccc1)NC(=O)OC(C)(C)C)C(C)C`, the IC50 was determined as 540 nM.

Regarding `COC(=O)[C@H](CC(C)C)NC(=O)N(Cc1ccccc1)C[C@@H](O)[C@H](Cc1ccccc1)NC(=O)OC(C)(C)C`, the IC50 came to 8000 nM.

Turning to `COC(=O)[C@@H](NC(=O)[C@H](CC(C)C)NC(=O)N(Cc1ccccc1)C[C@@H](O)[C@H](Cc1ccccc1)NC(=O)[C@H](CC(C)C)NC(=O)OC(C)(C)C)C(C)C`, the concentration for half-maximal inhibition (IC50) amounted to 230 nM.

In turn, `COC(=O)[C@H](CC(C)C)NC(=O)[C@H](CC(C)C)NC(=O)N(Cc1ccccc1)C[C@@H](O)[C@H](Cc1ccccc1)NC(=O)OC(C)(C)C` had an IC50 of 650 nM.

Turning to `COC(=O)[C@H](Cc1ccccc1)NC(=O)[C@@H](NC(=O)[C@H](CC(C)C)NC(=O)N(Cc1ccccc1)C[C@@H](O)[C@H](Cc1ccccc1)NC(=O)OC(C)(C)C)C(C)C`, half-maximal inhibition (IC50) was put at 250 nM.

As for `COC(=O)[C@@H](NC(=O)[C@@H](NC(=O)[C@H](CC(C)C)NC(=O)N(Cc1ccccc1)C[C@@H](O)[C@H](Cc1ccccc1)NC(=O)OC(C)(C)C)C(C)C)C(C)C`, the IC50 came to 530 nM.

Consider `CC[C@H](C)[C@H](NC(=O)[C@@H](NC(=O)[C@H](CC(C)C)NC(=O)N(Cc1ccccc1)C[C@@H](O)[C@H](Cc1ccccc1)NC(=O)OC(C)(C)C)C(C)C)C(=O)OC`, for which it took 270 nM to reach half-maximal inhibition (IC50).

Regarding `COC(=O)[C@H](Cc1ccccc1)NC(=O)[C@H](CC(C)C)NC(=O)N(CC(C)C)C[C@@H](O)[C@H](Cc1ccccc1)NC(=O)OC(C)(C)C`, the IC50 was 400 nM.

`COC(=O)[C@H](C)NC(=O)[C@@H](NC(=O)[C@H](CC(C)C)NC(=O)N(Cc1ccccc1)C[C@@H](O)[C@H](Cc1ccccc1)NC(=O)OC(C)(C)C)C(C)C` showed an IC50 of 670 nM.

With `COC(=O)[C@H](Cc1ccccc1)NC(=O)[C@H](CC(C)C)NC(=O)N(C[C@@H](O)[C@H](Cc1ccccc1)NC(=O)OC(C)(C)C)C(C)C`, half-maximal inhibition (IC50) required 22000 nM.

For `COC(=O)[C@@H](NC(=O)[C@H](CC(C)C)NC(=O)N(Cc1ccccc1)C[C@@H](O)[C@H](Cc1ccccc1)NC(=O)[C@H](C)NC(=O)OC(C)(C)C)C(C)C`, the half-inhibitory concentration (IC50) turned out to be 150 nM.

For `COC(=O)[C@@H](NC(=O)[C@H](CC(C)C)NC(=O)N(Cc1ccccc1)C[C@@H](O)[C@H](Cc1ccccc1)NC(=O)[C@H](Cc1ccccc1)NC(=O)OC(C)(C)C)C(C)C`, it took 500 nM to reach half-maximal inhibition (IC50).

`COC(=O)[C@H](Cc1ccccc1)NC(=O)[C@@H](NC(=O)N(Cc1ccccc1)C[C@@H](O)[C@H](Cc1ccccc1)NC(=O)OC(C)(C)C)C(C)C`: 400 nM corresponded to half-maximal inhibition (IC50).

`COC(=O)[C@@H](NC(=O)[C@H](CC(C)C)NC(=O)N(Cc1ccccc1)C[C@@H](O)[C@H](Cc1ccccc1)NC(=O)[C@@H](NC(=O)OC(C)(C)C)C(C)C)C(C)C` displayed an IC50 of 70 nM. Compared with the last molecule, the IC50 is about 5.7-fold lower.

The molecule `COC(=O)[C@H](Cc1ccccc1)NC(=O)[C@H](Cc1ccccc1)NC(=O)N(Cc1ccccc1)C[C@@H](O)[C@H](Cc1ccccc1)NC(=O)OC(C)(C)C` returned an IC50 of 18000 nM.

As for `COC(=O)[C@H](Cc1ccccc1)NC(=O)[C@H](C)NC(=O)N(Cc1ccccc1)C[C@@H](O)[C@H](Cc1ccccc1)NC(=O)OC(C)(C)C`, half-maximal inhibition (IC50) required 140 nM.

For `COC(=O)[C@@H](NC(=O)[C@H](CC(C)C)NC(=O)N(Cc1ccccc1)C[C@@H](O)[C@H](Cc1ccccc1)NC(=O)OC(C)(C)C)C(C)C`, the IC50 was 220 nM.

Molecule `COC(=O)[C@H](C)NC(=O)[C@H](CC(C)C)NC(=O)N(Cc1ccccc1)C[C@@H](O)[C@H](Cc1ccccc1)NC(=O)OC(C)(C)C` yielded an IC50 of 20000 nM.

`COC(=O)[C@H](Cc1ccccc1)NC(=O)[C@H](CC(C)C)NC(=O)N(Cc1ccccc1)C[C@@H](O)[C@H](Cc1ccccc1)NC(=O)OC(C)(C)C` (stereo in doubt; 2) registered an IC50 of 390 nM.

For the molecule `COC(=O)[C@H](Cc1ccccc1)NC(=O)[C@H](CC(C)C)NC(=O)N(Cc1ccccc1)C[C@@H](O)[C@H](Cc1ccccc1)NC(=O)OC(C)(C)C` (stereo in doubt; 9), the concentration for half-maximal inhibition (IC50) came out at 400 nM.

`COC(=O)[C@H](Cc1ccccc1)NC(=O)[C@H](CC(C)C)NC(=O)N(Cc1ccccc1)C[C@@H](O)[C@H](Cc1ccccc1)NC(=O)OC(C)(C)C` (stereo in doubt; 12) showed a concentration for half-maximal inhibition (IC50) of 390 nM.
